Measurements published in patent US9168229B2, “Soft gelatin capsules” (ALTERGON S.A., priority 2005, dated 2015).

Experiment: Solubility of cyclodextrins in an aqueous gelatin/glycerin solution
Type: physicochemical
Description: The solubility of β-, γ and hydroxypropyl-β-(HPβ) cyclodextrin in the solution containing gelatin was verified. This study was conducted by dissolving quantities of 2.5% or of 5% (W/V) of β-, γ or hydroxypropyl-β-(HPβ) cyclodextrin in an aqueous solution containing 36% (W/W) of gelatin and 15% (W/W) of anhydrous glycerin.

[1] = 5% (W/V) cyclodextrin in aqueous solution containing 36% (W/W) gelatin and 15% (W/W) anhydrous glycerin

Compound	solubility in the solution containing gelatin (2.5% (W/V) cyclodextrin in aqueous solution containing 36% (W/W) gelatin and 15% (W/W) anhydrous glycerin)	solubility in the solution containing gelatin [1]
OC[C@H]1O[C@@H]2O[C@H]3[C@H](O)[C@@H](O)[C@@H](O[C@H]4[C@H](O)[C@@H](O)[C@@H](O[C@H]5[C@H](O)[C@@H](O)[C@@H](O[C@H]6[C@H](O)[C@@H](O)[C@@H](O[C@H]7[C@H](O)[C@@H](O)[C@@H](O[C@H]8[C@H](O)[C@@H](O)[C@@H](O[C@H]1[C@H](O)[C@H]2O)O[C@@H]8CO)O[C@@H]7CO)O[C@@H]6CO)O[C@@H]5CO)O[C@@H]4CO)O[C@@H]3CO [β-cyclodextrin]	soluble	opalescent mixture
OC[C@H]1O[C@@H]2O[C@H]3[C@H](O)[C@@H](O)[C@@H](O[C@H]4[C@H](O)[C@@H](O)[C@@H](O[C@H]5[C@H](O)[C@@H](O)[C@@H](O[C@H]6[C@H](O)[C@@H](O)[C@@H](O[C@H]7[C@H](O)[C@@H](O)[C@@H](O[C@H]8[C@H](O)[C@@H](O)[C@@H](O[C@H]9[C@H](O)[C@@H](O)[C@@H](O[C@H]1[C@H](O)[C@H]2O)O[C@@H]9CO)O[C@@H]8CO)O[C@@H]7CO)O[C@@H]6CO)O[C@@H]5CO)O[C@@H]4CO)O[C@@H]3CO [γ-cyclodextrin]		soluble
hydroxypropyl-β-cyclodextrin		soluble
